Tests used:
[1] = system: Hep G2/C3A-cells; settings: 0.03 mM added to the medium; experimental stage
Description: Synthesis Capacity, for Example Micro-Albumin and Other Protein Synthesis of the Hep G2/C3A Cells (13).
The HepG2/C3A-cells are seeded in 24 well cell culture plates in a concentration of 250,000 cells/well for three days and 0.5 ml plasma from test persons+0.25 ml medium is added. The cells are then rinsed once with medium and after that are incubated with fresh medium (1 ml) for three days. After that micro albumin is determined nephelometrically from 0.2 ml cell culture medium and duplicated (+medium control). Each test batch with plasma from test persons is also duplicated.
Consequently the test period can also be shortened to 48 hours and the cells release measurable quantities of fibrinogen and transferrine (plasma proteins) that can be measured and duplicated in 200 μl cell culture medium.

[2] = system: cytochrome P450 1A2; settings: Hep G2/C3A-cells; cited from earlier work

Row | Structure (SMILES) | synthesis capacity of the Hep G2/C3A-cells [1] | activity of cytochrome P450 1A2 after induction, relative to the initial value [2] [times the initial value]
1 | NCCC[C@H](N)C(=O)O.O=C(O)CCC(=O)C(=O)O [ornithine alpha-cetoglutarates] | increased | 
2 | Cc1ccc2cc3c(ccc4ccccc43)c3c2c1CC3 [methylcholanthrene, 3-methylcholanthren] |  | 40

— patent publication US20090061470A1, “Use of Human Hepatocytes for Determining Liver Function and Liver Regeneration” (priority 2006, published 2009)
